Measurements from patent publication US10723778B2, “Variants of adrenomedullin and calcitonin gene-related peptide and methods of use” (The Board of Regents of the University of Oklahoma, priority 2015, dated 2020).
Like-named read-outs stand apart in the source and are kept apart here. Where no end group is shown, it is not given here.

Experiments:
[1] = target: T1, RAMP1-CLR ECD (CGRP); purified MBP-RAMP1 ECD-(GS)5-CLR ECD-H6 fusion protein (Homo sapiens, UniProt O60894+Q16602); test: Fluorescence polarization (FP) peptide binding competition assay, CGRP receptor ECD complex; details: for Receptor Selectivity, fold for CGRP: CGRP (RAMP1-CLR ECD) over AM1 (RAMP2-CLR ECD); for Receptor Selectivity (in words): CGRP vs AM1 receptor ECD complexes
T1 construct: MBP-hRAMP1.24-111-(Gly-Ser)5-hCLR.29-144-H6; made in house; host or cells: E. coli
Description: (§1) Fluorescence polarization peptide binding assay. […] The reactions (50 μL) were incubated for 2 hours at room temperature to reach equilibrium, and the anisotropy was measured in black half-area 96-well plates using a BMG LABTECH's POLARstar® Omega plate reader (Ortenberg, Germany). The reaction buffer was 50 mM HEPES, pH 7.5, 150 mM NaCl, 0.5 mg/ml fatty acid-free BSA, 0.5 mM EDTA, 0.5 mM maltose. Ki values were calculated using nonlinear regression fitting of the competition curves to the exact analytical equations of Roehrl et al. (Biochemistry (2004) 43:16056-66) using GraphPad Prism 5.0 (GraphPad Software, San Diego Calif.).
(§2) The ability of the indicated peptides to displace a FITC-Ahx-AM(37-52)NH2 [S45W, Q50W] probe (7 nM) from purified MBP-RAMP1 ECD-(GS)5-CLR ECD-H6 fusion protein (15 nM) was assessed by fluorescence polarization (anisotropy). The reactions were incubated for 2 hours at room temperature to reach equilibrium, and the anisotropy was measured in black half-area 96-well plates using a BMG LABTECH's POLARstar® Omega plate reader (Ortenberg, Germany). The reaction buffer was 50 mM HEPES, pH 7.5, 150 mM NaCl, 0.5 mg/ml fatty acid-free BSA, 0.5 mM EDTA, 0.5 mM maltose. KI values were calculated using nonlinear regression fitting of the competition curves to the exact analytical equations of Roehrl et al. (Biochemistry (2004) 43:16056-66) using GraphPad Prism 5.0 (GraphPad Software, San Diego Calif.).
as §2, with “Single representative experiments conducted with duplicate samples are shown. Error bars are S.E.M. The ability” for “The ability”, “displace a FITC-Ahx-AM(37-52)NH2[S45W, Q50W] probe” for “displace a FITC-Ahx-AM(37-52)NH2 [S45W, Q50W] probe”
A fluorescence polarization/anisotropy (FP) peptide-binding assay was developed using N-terminally FITC-labeled AM(37-52) S45W/Q50W as the probe, hereafter “FITC-AM W/W.” The probe was custom synthesized and HPLC-purified by RS Synthesis. The large size difference between the MBP-RAMP ECD-CLR ECD fusion proteins (˜65 kDa) and the probe (˜2.5 kDa) ensures a significant anisotropy difference between bound and free states of the probe. […] Kd values for the probe at each of the tethered ECD fusion proteins were determined in equilibrium saturation binding experiments (data not shown), and KI values were determined for unlabeled peptides in equilibrium competition experiments (Table 1; FIGS. 2-5). The data were analyzed according to exact analytical equations using non-linear regression curve fitting in GraphPad Prism 5.0 (GraphPad Software) via user-defined equations.

[2] = target: T2, RAMP2-CLR ECD (AM1); purified MBP-RAMP2 ECD [L106R]-(GS)5-CLR ECD-H6 fusion protein (Homo sapiens, UniProt O60895+Q16602, L106R); test: Fluorescence polarization (FP) peptide binding competition assay, AM1 receptor ECD complex; details: for Ki / RAMP2-CLR ECD (AM1) KI (nM): FP competition, FITC-AM W/W probe 7 nM, fusion protein 110 nM
T2 construct: MBP-hRAMP2.55-140 [L106R]-(Gly-Ser-Ala)3-hCLR.29-144-H6; made in house; host or cells: E. coli
Description: as §1
FIG. 3(A-K) depicts binding of (A) AM-based peptide AM(37-52)NH2, and variant peptide AM(37-52)NH2[S45W, Q50W]; (B) AM-based peptide AM(37-52)NH2, variant peptide AM(37-52)NH2[Q50F], and variant peptide AM(37-52)NH2[Q50W]; (C) variant peptides AM(37-52)NH2[K46L], AM(37-52)NH2[K46M], and AM(37-52)NH2[D39F]; (D) variant peptides AM(37-52)NH2[D39F, K46L, Q50W], AM(37-52)NH2[D39F, K46L, Q50W, Y52F], and AM(37-52)NH2[S45W, K46L, Q50W, Y52F]; (E) variant peptides AM(37-52)NH2[[D39K], AM(37-52)NH2[K46L, Q50W], and AM(37-52)NH2[K46L, Q50W, Y52F]; (F) variant peptides AM(37-52)NH2[S45W, K46M, Q50W, Y52F], and AM(37-52)NH2[S45W, K46W, Q50W, Y52F]; (G) variant peptides AM(37-52)NH2[S45T, K46W, Q50W], AM(37-52)NH2[S45T, K46L, Q50W], and AM(37-52)NH2[S45W, K46L, S48G, Q50W, Y52F]; (H) variant peptide AM(37-52)NH2[S45W, K46L, I47M, Q50W, Y52F]; (I) variant peptides AM(37-52)NH2[S45R, K46W, Q50W], and AM(37-52)NH2[S45R, K46L, Q50W]; (J) variant peptides AM(37-52)NH2[S45R, K46W, S48G, Q50W], AM(37-52)NH2[S45R, K46L, S48G, Q50W], and AM(37-52)NH2[S45R, K46W, I47L, S48G, Q50W]; and (K) variant peptides AM(37-52)NH2[D39W, Q50W], and AM(37-52)NH2[D37V, S45W, K46L, Q50W, Y52F], to the purified AM1 receptor extracellular domain complex. Single representative experiments conducted with duplicate samples are shown. […] The reactions were incubated for 2 hours at room temperature to reach equilibrium, and the anisotropy was measured in black half-area 96-well plates using a BMG LABTECH's POLARstar® Omega plate reader (Ortenberg, Germany). The reaction buffer was 50 mM HEPES, pH 7.5, 150 mM NaCl, 0.5 mg/ml fatty acid-free BSA, 0.5 mM EDTA, 0.5 mM maltose. KI values were calculated using nonlinear regression fitting of the competition curves to the exact analytical equations of Roehrl et al. (Biochemistry (2004) 43:16056-66) using GraphPad Prism 5.0 (GraphPad Software, San Diego Calif.).
as §1, with “Single representative experiments conducted with duplicate samples are shown.” for “Fluorescence polarization peptide binding assay.”, “reactions” for “reactions (50 μL)”, “KI” for “Ki”
A fluorescence polarization/anisotropy (FP) peptide-binding assay was developed using N-terminally FITC-labeled AM(37-52) S45W/Q50W as the probe, hereafter “FITC-AM W/W.” The probe was custom synthesized and HPLC-purified by RS Synthesis. The large size difference between the MBP-RAMP ECD-CLR ECD fusion proteins (˜65 kDa) and the probe (˜2.5 kDa) ensures a significant anisotropy difference between bound and free states of the probe. […] Kd values for the probe at each of the tethered ECD fusion proteins were determined in equilibrium saturation binding experiments (data not shown), and KI values were determined for unlabeled peptides in equilibrium competition experiments (Table 1; FIGS. 2-5).

[3] = RAMP1-CLR ECD (CGRP) KI (nM), FP competition, FITC-AM W/W probe 7 nM, fusion protein 15 nM
[4] = FP competition, FITC-AM W/W probe 7 nM, fusion protein 15 nM

| Substance | Receptor Selectivity, fold for CGRP ([1]; FP assay) | Ki [1, 3] [nM] | Receptor Selectivity (in words) ([1]; FP assay) | RAMP2-CLR ECD (AM1) KI (nM) [2] | also measured |
| --- | --- | --- | --- | --- | --- |
| DKDNVAPRWWISPWGF-NH2 [S45W/K46W/Q50W/Y52F] | 692-fold for CGRP | 24 |  |  |  |
| FVPTDVGPFSF-NH2 [N31D/S34P/K35F/A36S] |  | 2.95 | CGRP over AM1 |  | Ki ([2]; read-out: RAMP2-CLR ECD (AM1) KI): > 10000 nM |
| DKDNVAPRSKISPFGY-NH2 [Peptide Q50F] |  | 10500 |  |  | Receptor Selectivity, fold for AM1 ([2]; AM1 (RAMP2-CLR ECD) over CGRP (RAMP1-CLR ECD), FP assay): 5-fold for AM1 |
| FVPTDVGPWAF-NH2 [N31D/S34P/K35W] |  | 8.13 | CGRP | No binding |  |
| DKDNVAPRSLISPQGY [Peptide K46L] |  |  |  | No binding | RAMP1-CLR ECD (CGRP) KI (nM) [1, 4]: No binding |
| DKDNVAPRTLISPWGY-NH2 [S45T/K46L/Q50W] | 24-fold for CGRP | 65.6 |  |  |  |
| FVPTDTGPWGF-NH2 [N31D/V32T/S34P/K35W/A36G] |  | 6.85 | CGRP | No binding |  |
| DKKNVAPRSKISPQGY-NH2 [Peptide D39K] |  |  | AM1 |  | RAMP1-CLR ECD (CGRP) KI (nM) [1, 4]: No binding |
| FVPTDTGPWSF-NH2 [N31D/V32T/S34P/K35W/A36S] | ≥2754-fold for CGRP | < 1 |  |  | KI for the CGRP receptor ECD complex ([1]; FP assay): well into the pM range |
| DKDNVAPRWMISPWGF-NH2 [S45W/K46M/Q50W/Y52F] | 977-fold for CGRP | 7.94 |  |  |  |
| D39F: AM(37-52)NH2 scaffold variant peptide with D39F substitution (DKFNVAPRSKISPQGY-NH2) [Peptide D39F] |  |  |  | No binding | RAMP1-CLR ECD (CGRP) KI (nM) [1, 4]: No binding |
| FVPTDTGPWGY-NH2 [N31D/V32T/S34P/K35W/A36G/F37Y] | 821-fold for CGRP | 17.6 |  |  |  |
| DKDNVAPRWLMSPWGF-NH2 [S45W/K46L/I47M/Q50W/Y52F] |  | 0.78 | CGRP (very selective) | No binding | Ki ([1]; KI for the CGRP receptor ECD complex, FP assay): ~0.78 nM; RAMP2-CLR ECD (AM1) KI (nM) ([2]; listed as AM(37-52)NH2[S45W, K46L, I47M, Q50W, Y52F]): no binding |
| DKDNVAPRSLISPWGY-NH2 [K46L/Q50W] | 23-fold for CGRP | 70.8 |  |  |  |
| DKDNVAPRSMISPQGY [Peptide K46M] |  |  |  | No binding | RAMP1-CLR ECD (CGRP) KI (nM) [1, 4]: No binding |
| DKDNVAPRSLISPWGF-NH2 [K46L/Q50W/Y52F] | 2820-fold for CGRP | 31.6 |  |  |  |
| DKDNVAPRTWISPWGY-NH2 [S45T/K46W/Q50W] | 28-fold for CGRP | 439 |  |  |  |
| DKFNVAPRSLISPWGY-NH2 [D39F/K46L/Q50W] | 22-fold for CGRP | 82.2 |  |  | Ki ([1]; RAMP1-CLR ECD (CGRP) pKI, FP competition, FITC-AM W/W probe 7 nM, fusion protein 15 nM, mean ± S.E.M of at least 3 independent experiments): 79.4 nM |
| DKFNVAPRSLISPWGF-NH2 [D39F/K46L/Q50W/Y52F] | 1213-fold for CGRP | 25 |  |  | Ki ([2]; mean ± S.E.M, read-out: RAMP2-CLR ECD (AM1) pKI (converted)): 28200 nM |
| DKDNVAPRWKISPWGY-NH2 [S45W/Q50W] |  | 44.7 | Non-selective |  |  |
